Assay [1] concerns Hedgehog signaling (Gli-Luc reporter). The assay is described as follows: Hh Gli-Luciferase reporter assay in Shh-Light2 cells. It is filed as cell-based, mouse. The conditions noted are these: for Sonic hedgehog (SHH)-responsive Gli-luciferase reporter activity: Shh-conditioned media; for Purmorphamine-induced Gli-Luc reporter activity: purmorphamine 3 μM; for IC50 / EC50: Mus musculus, Shh Light2; for EC50: Table 9A, read-out: Shh Light2 Luc EC50. In a few lines: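 Steady-Glo luminescence, corrected for cell titer by CellTiter-Glo, was measured after overnight exposure to compound concentrations. Signaling in Gli-Luc Shh-Light2 cells came either from Shh-conditioned medium, 3 μM purmorphamine or 20 nM SAG, or from transfected Gli-2, PDE4D3 or DN-PDE4D3 constructs.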
For orientation: A reporter such as luciferase makes a cellular process visible.

The target in assay [2] is T1, PDE4D2 (Homo sapiens, UniProt Q08499).
T1 construct: purchased BPS Biosciences (San Diego, Calif.)
The assay is described as follows: In vitro PDE assay. To be noted: for IC50: Table 9A. The format is biochemical. In a few lines: (§1)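 Fluorescence polarization readout: FAM-AMP formed from 100 nM FAM-cAMP binds nano-bead agent (60 min) and is read at ex 485/em 528 nm. Enzyme reactions ran 60 min at room temperature in duplicate, Tris-HCl pH 7.4 buffer with 10 mM MgCl2 and 0.05% Tween 20, compound in 1% final DMSO.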

The target of assay [3] is T2, PDE4D3 (Homo sapiens, UniProt Q08499).
T2 construct: purchased BPS Biosciences (San Diego, Calif.); kinetic studies by Millipore (St. Louis, Mo.)
The assay is described as follows: In vitro PDE assay. It is filed as biochemical. To be noted: for IC50: Table 9A; for Mode of inhibition (Lineweaver-Burk, Eadie Hofstee): purified PDE4D3. In a few lines:
as §1

Assay [4] has as its system DU145. The assay is described as follows: Cell viability assay (CellTiter-Blue, 72 hr). It is filed as cell-based, Human. In a few lines: (§2)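 Read-out is absorbance at 590 nm, compared against DMSO-only wells. Before this, cancer cells seeded sparsely at 10,000 per well received varying concentrations of compound.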
Background: Resazurin is reduced to fluorescent resorufin, in cell work by metabolically active cells.

Assay [5] concerns HeLa. The assay is described as follows: Cell viability assay (CellTiter-Blue, 72 hr). It is filed as cell-based, Human. In a few lines:
as §2

Assay [6] concerns SW480. The assay is described as follows: Cell viability assay (CellTiter-Blue, 72 hr). The format is cell-based, Human. The conditions noted are these: SW480; human cancer cells; read-out: CELL KILLING EC50 (μM) Colon SW480. In a few lines:
as §2

Assay [7] deals with H82. Kind of assay: Cell killing EC50 in H82 lung cancer cells (Table 10). The format is cell-based. To be noted: human cancer cells. As for the experimental part: It is anticipated that compounds disclosed herein could serve as an anti-tumor, anti-angiogenic, anti-metastatic, agent in the treatment of cancer. To this end, a series of clinically relevant cancer lines were assayed and the cell-killing EC50s for compounds according to the subject matter disclosed herein are provided in Table 10.

Assay [8] addresses PDE4D (Homo sapiens, UniProt Q08499). The assay is described as follows: PDE4 inhibition assay (PDE4D IC50). The conditions noted are these: read-out: PDE4D IC50. The format is biochemical. In a few lines: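 Duplicate 60 min room-temperature reactions hold 100 nM FAM-cAMP substrate, PDE4D enzyme and test compound at 1% final DMSO in pH7.4 Tris buffer. Product FAM-AMP captured by bead binding agent (60 min), with fluorescence read at excitation 485, emission 528 nm.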

Where [9] appears, read: DU-145, human cancer cells, read-out: CELL KILLING EC50 (μM) Prostate DU145.
The mark [10] stands for this setting: human cancer cells, read-out: CELL KILLING EC50 (μM) Cervix HeLa.

Molecules are shown by their SMILES. “And” between values parts separate entries of the source, which are not always exact repeats. Identical values can stand only once. “Also recorded” adds a separate entry of the source. Like-named read-outs stand apart in the source and are kept apart here.

T2 sequence (Q08499 1-673 isoform Q08499-2): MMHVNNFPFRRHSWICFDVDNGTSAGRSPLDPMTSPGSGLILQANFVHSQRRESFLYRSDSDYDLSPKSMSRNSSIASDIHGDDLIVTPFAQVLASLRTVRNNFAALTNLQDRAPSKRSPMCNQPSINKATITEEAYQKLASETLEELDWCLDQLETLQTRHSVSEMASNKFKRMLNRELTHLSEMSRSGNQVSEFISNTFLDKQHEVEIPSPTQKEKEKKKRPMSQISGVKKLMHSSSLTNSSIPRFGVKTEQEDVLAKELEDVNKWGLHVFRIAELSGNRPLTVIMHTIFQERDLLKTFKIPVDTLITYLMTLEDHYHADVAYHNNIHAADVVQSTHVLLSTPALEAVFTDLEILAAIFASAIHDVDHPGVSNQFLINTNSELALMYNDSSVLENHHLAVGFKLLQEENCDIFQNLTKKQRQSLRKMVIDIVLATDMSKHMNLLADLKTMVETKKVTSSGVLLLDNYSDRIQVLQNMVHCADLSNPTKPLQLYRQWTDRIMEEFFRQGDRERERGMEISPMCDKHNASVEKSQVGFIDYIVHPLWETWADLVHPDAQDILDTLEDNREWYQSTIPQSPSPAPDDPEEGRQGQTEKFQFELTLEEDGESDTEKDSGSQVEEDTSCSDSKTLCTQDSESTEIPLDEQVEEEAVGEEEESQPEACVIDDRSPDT
T1 sequence (Q08499 303-809): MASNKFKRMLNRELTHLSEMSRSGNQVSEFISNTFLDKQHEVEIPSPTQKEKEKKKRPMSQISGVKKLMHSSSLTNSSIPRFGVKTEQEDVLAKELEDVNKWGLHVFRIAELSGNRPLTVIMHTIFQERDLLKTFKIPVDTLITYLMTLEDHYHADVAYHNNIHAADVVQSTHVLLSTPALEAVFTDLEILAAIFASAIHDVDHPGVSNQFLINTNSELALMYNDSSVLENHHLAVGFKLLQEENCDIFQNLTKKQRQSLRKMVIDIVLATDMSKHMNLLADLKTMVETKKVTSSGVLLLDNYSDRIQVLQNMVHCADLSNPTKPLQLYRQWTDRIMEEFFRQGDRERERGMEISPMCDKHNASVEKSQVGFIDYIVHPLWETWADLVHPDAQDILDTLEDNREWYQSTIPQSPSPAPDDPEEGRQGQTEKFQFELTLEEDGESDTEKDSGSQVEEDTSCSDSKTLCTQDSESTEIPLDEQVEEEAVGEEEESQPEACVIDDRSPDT

With `C=C(C)Cn1c(SCC(=O)c2cccs2)nc2sc3c(c2c1=O)CCCC3` [EGM, Eggmanone], the “Sonic hedgehog (SHH)-responsive Gli-luciferase reporter activity” value (shortened to “Sonic hedgehog”) in assay [1] was “inhibited Sonic hedgehog (SHH)-responsive Gli-luciferase (Gli-Luc) reporter activity in a dose-dependent manner”. Besides, the “Purmorphamine-induced Gli-Luc reporter activity” value in assay [1] is listed as “inhibited purmorphamine (Purm, 3 μM)-induced Gli-Luc reporter activity in a dose-dependent manner”. Besides, the IC50 in assay [2] stood at 1.3 µM; in assay [3] it was 1.1 µM. The “Mode of inhibition (Lineweaver-Burk, Eadie Hofstee)” value in assay [3] is “competitive mode of inhibition; also recorded: acts in a competitive manner”. For the same compound, the EC50 in assay [4] (setting [9]) amounted to 41.9 µM; in assay [5] (setting [10]), 12.4 µM; in assay [6], 0.534 µM. Also, the “CELL KILLING EC50 (μM) Lung H82” value in assay [7] was “UnCh”.

`C=C(C)Cn1c(SCC(=O)c2cccs2)nc2sc3c(c2c1=O)CCCC3` [Eggmanone, 3-(2-methylallyl)-2-((2-oxo-2-(thiophen-2-yl)ethyl)thio)-5,6,7,8-tetrahydrobenzo[4,5]thieno[2,3-d]pyrimidine-4(3H)-one]: in assay [1], half-maximal inhibition (IC50) was put at 1.5 µM; the “Sonic hedgehog” value is reported as “inhibited Hh-inducible Gli-responsive luciferase (Gli-Luc) activity in a dose dependent manner”; the “Purmorphamine-induced Gli-Luc reporter activity” value is “blocked Gli-Luc reporter and ptch1 induction by purmorphamine”. In assay [1] (listed as eggmanone), the “Sonic hedgehog” value is “inhibited Hh-inducible Gli-responsive luciferase (Gli-Luc) activity in a dose dependent manner”. Further, the “Inhibition of super-short isoform PDE4D2” value in assay [2] was “not inhibited”. Further, in assay [3], the “Potency against PDE4D3 versus any tested PDE not of the PDE4 family” value was “at least 60 fold” and the “Mode of inhibition (Lineweaver-Burk, Eadie Hofstee)” value is on record as “exhibited a competitive mode of inhibition”. Further, in assay [8], the IC50 was 0.89 µM and 0.893 µM.

In the case of `CCCn1c(SCC(=O)c2cccs2)nc2sc3c(c2c1=O)CCCC3` [Formula 9e], in assay [8] (mean ± SEM, normalized to DMSO), the IC50 is 0.486 ± 0.001 µM.

For `C=C(C)Cn1c(SCC(=O)c2ccccc2)nc2sc3c(c2c1=O)CCCC3` [Formula 9g], in assay [8] (mean ± SEM, normalized to DMSO), the concentration for half-maximal inhibition (IC50) worked out at 0.965 ± 0.1 µM.

For `O=C(CSc1nc2sc3c(c2c(=O)n1C1CC1)CCCC3)c1cccs1` [JEH-3-039-2], in assay [3], the IC50 was above 100 µM.

As for `C=CCn1c(SCC(=O)c2cccs2)nc2sc3c(c2c1=O)CCCC3` [JEH-3-039-3], the 50% inhibitory concentration (IC50) in assay [2] and in assay [3] was above 100 µM throughout. Further, the EC50 in assay [4] (setting [9]) is 71 µM; in assay [5] (setting [10]), 36.9 µM; in assay [6], 3.63 µM. Further, the “CELL KILLING EC50 (μM) Lung H82” value in assay [7] was “UnCh”.

In the case of `C=C(C)Cn1c(SCC(=O)c2ccccc2)nc2sc3c(c2c1=O)CCCC3` [JEH-3-045-1], the half-inhibitory concentration (IC50) in assay [2] was 14 µM; in assay [3], 18 µM.

In the case of `C=C(C)Cn1c(SCC(=O)c2ccncc2)nc2sc3c(c2c1=O)CCCC3` [JEH-3-048-1], the IC50 in assay [1] is 10 µM; in assay [2] it was 16 µM; in assay [3], 24 µM; in assay [8] it was 16 µM. The EC50 in assay [4] (setting [9]) was determined as 100 µM; in assay [5] (setting [10]) it was 23.6 µM; in assay [6], 1.87 µM. In addition, the “CELL KILLING EC50 (μM) Lung H82” value in assay [7] is reported as “UnCh”.

On to `C=C(C)Cn1c(SCC(=O)c2ccccn2)nc2sc3c(c2c1=O)CCCC3` [JEH-3-063], for which the IC50 in assay [1] was 15 µM; in assay [2] it was 4.9 µM; in assay [3], 23 µM; in assay [8] it was 4.9 µM. Also, the EC50 was 10 to 20 µM in assay [1]; 0.684 µM in assay [4] (DU-145, 72 h, read-out: EC50 (50% reduction of viable cell count at 72 hours), DU145, Human Prostate Adenocarcinoma); 0.684 µM in assay [4] (setting [9]); 9.2 µM in assay [5] (72 h, read-out: EC50 (50% reduction of viable cell count at 72 hours), Human Cervical Adenocarcinoma); 9.18 µM in assay [5] (setting [10]); 8.05 µM in assay [6]. Besides, in assay [7], the “CELL KILLING EC50 (μM) Lung H82” value is recorded as “UnCh”.

Take `C=C(C)Cn1c(SCC(=O)c2nccs2)nc2sc3c(c2c1=O)CCCC3` [JEH-3-069-1]: the EC50 in assay [1] is 10 to 20 µM; in assay [4] (setting [9]), 47.5 µM; in assay [5] (setting [10]) it was 100 µM; in assay [6], 6.92 µM. The IC50 in assay [2] stood at 6.4 µM; in assay [3], 15 µM. Moreover, the “CELL KILLING EC50 (μM) Lung H82” value in assay [7] is “UnCh”.

For orientation: IC50 means the concentration that inhibits the measured activity by half. One may read the EC50 as the concentration giving half of the maximal effect.

The record behind these values is patent US10329304B2, “Compounds and methods for inhibition of hedgehog signaling and phosphodiesterase” (Vanderbilt University, priority 2014, dated 2019).
